# Measured values taken from the supplement of paper PMC10307832.
# Tests used:
# Test in all cases: relative viability (nuclei count vs DMSO), 5 days (fraction); higher = more cells survive
# [1] = compound: CNC(=O)c1cc(Oc2ccc(NC(=O)Nc3ccc(Cl)c(C(F)(F)F)c3)cc2)ccn1 [Sorafenib] + CC(=O)c1c(C)c2cnc(Nc3ccc(N4CCNCC4)cn3)nc2n(C2CCCC2)c1=O [Palbociclib] (partner 0.5 µM)
# How it was run: (§1)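 One day after seeding in 1536-well plates, lung cancer cell lines were dosed by pin tool. Dosing was either single-drug or a fixed anchor-drug dose plus five library-drug doses (not always all listed) in √10 steps. After 5 days, nuclei were stained in one fix-and-stain step and counted on 4× images, and relative viability is the nuclei count of treated wells over that of vehicle wells, given as the median of duplicate plates.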
# [2] = compound: CNC(=O)c1cc(Oc2ccc(NC(=O)Nc3ccc(Cl)c(C(F)(F)F)c3)cc2)ccn1 [Sorafenib] + Cc1cc(Nc2cc(N3CCN(C)CC3)nc(Sc3ccc(NC(=O)C4CC4)cc3)n2)n[nH]1 [Tozasertib] (partner 0.1 µM)
# How it was run: as §1
# [3] = compound: CNC(=O)c1cc(Oc2ccc(NC(=O)Nc3ccc(Cl)c(C(F)(F)F)c3)cc2)ccn1 [Sorafenib] + C[C@]1(O)C[C@@H](c2nc(-c3ccc4ccc(-c5ccccc5)nc4c3)c3c(N)nccn32)C1 [Linsitinib] (partner 1 µM)
# How it was run: as §1
# [4] = compound: CNC(=O)c1cc(Oc2ccc(NC(=O)Nc3ccc(Cl)c(C(F)(F)F)c3)cc2)ccn1 [Sorafenib] + Cc1nc(Nc2ncc(C(=O)Nc3c(C)cccc3Cl)s2)cc(N2CCN(CCO)CC2)n1 [Dasatinib] (partner 0.075 µM)
# How it was run: as §1
# [5] = compound: CNC(=O)c1cc(Oc2ccc(NC(=O)Nc3ccc(Cl)c(C(F)(F)F)c3)cc2)ccn1 [Sorafenib] + Nc1ncn([C@H]2C[C@H](O)[C@@H](CO)O2)c(=O)n1 [Decitabine] (partner 2 µM)
# How it was run: as §1
Cell Line,relative viability ([1]; first compound 0.08 µM),relative viability ([1]; first compound 0.253 µM),relative viability ([1]; first compound 2.53 µM),relative viability ([1]; first compound 8 µM),relative viability ([2]; first compound 0.08 µM),relative viability ([2]; first compound 0.253 µM),relative viability ([2]; first compound 2.53 µM),relative viability ([2]; first compound 8 µM),relative viability ([3]; first compound 0.08 µM),relative viability ([3]; first compound 0.253 µM),relative viability ([3]; first compound 2.53 µM),relative viability ([3]; first compound 8 µM),relative viability ([4]; first compound 0.08 µM),relative viability ([4]; first compound 0.253 µM),relative viability ([4]; first compound 2.53 µM),relative viability ([4]; first compound 8 µM),relative viability ([5]; first compound 0.08 µM),relative viability ([5]; first compound 0.253 µM),relative viability ([5]; first compound 2.53 µM),relative viability ([5]; first compound 8 µM)
HCC-827,0.572,0.478,0.492,0.514,0.423,0.471,0.421,0.45,0.934,0.88,0.986,0.851,0.38,0.435,0.299,0.327,0.316,0.3,0.323,0.331
HOP-62,0.454,0.372,0.358,0.263,0.431,0.331,0.338,0.155,1.14,0.839,0.781,0.49,0.796,0.527,0.584,0.59,0.253,0.22,0.186,0.198
IA-LM,–,–,–,–,–,–,–,–,0.456,0.281,0.373,0.436,–,–,–,–,–,–,–,–
LC-2-ad,0.54,0.456,0.447,0.393,0.405,0.478,0.478,0.462,0.935,0.798,0.673,0.659,0.721,0.376,0.427,0.33,0.881,0.789,0.762,0.59
LCLC-97TM1,0.251,0.195,0.182,0.184,0.191,0.232,0.195,0.188,0.224,0.161,0.153,0.184,0.984,0.841,0.683,0.676,0.235,0.224,0.165,0.252
LCLC-103H,0.415,0.461,0.479,0.52,0.489,0.548,0.419,0.569,1.21,0.981,1.12,1.2,0.617,0.424,0.44,0.497,0.701,0.774,0.771,0.698
LK-2,0.703,0.588,0.528,0.542,0.17,0.226,0.17,0.153,0.672,0.364,0.451,0.516,0.259,0.267,0.341,0.263,0.329,0.235,0.236,0.182
LOU-NH91,0.533,0.52,0.55,0.533,0.69,0.681,0.767,0.647,1.07,0.973,1.13,0.873,0.692,0.52,0.686,0.361,0.807,0.829,0.87,0.845
LU99A,0.431,0.445,0.39,0.393,0.305,0.278,0.247,0.26,0.533,0.488,0.507,0.496,0.512,0.504,0.608,0.351,0.86,0.91,–,0.606
LXF-289,0.612,0.618,0.74,0.616,0.178,0.184,0.177,0.174,0.977,0.986,1.04,0.894,0.292,0.205,0.187,0.196,0.379,0.38,–,0.329
NCI-H596,–,–,–,–,1.01,0.907,0.871,0.406,1.06,0.982,1.07,1.26,0.68,0.53,0.55,0.461,0.987,1.01,1.16,1.05
NCI-H1563,–,–,–,–,–,–,–,–,1.08,1.41,1.21,1.16,0.496,0.469,0.478,0.454,–,–,–,–
NCI-H1650,0.363,0.493,0.401,0.26,0.397,0.39,0.361,0.257,–,–,–,–,0.366,0.33,0.296,0.172,0.443,0.61,0.49,0.439
NCI-H1703,–,–,–,–,–,–,–,–,0.642,0.336,0.142,0.179,–,–,–,–,–,–,–,–
NCI-H1792,0.722,0.684,0.646,0.654,–,–,–,–,0.569,0.511,0.478,0.546,0.825,0.742,0.863,0.554,0.507,0.492,0.489,0.456
NCI-H2170,0.379,0.327,0.401,0.325,0.767,0.714,0.726,0.694,–,–,–,–,0.771,0.485,0.6,0.518,0.493,0.411,0.486,0.437
NCI-H2228,0.692,0.883,0.589,0.517,0.273,0.283,0.18,0.182,0.682,0.551,0.669,0.596,0.543,0.434,0.465,0.271,–,–,–,–
NCI-H2342,0.53,0.523,0.556,0.533,0.568,0.488,0.377,0.366,–,–,–,–,0.32,0.27,0.29,0.28,0.778,0.676,0.716,0.712
SW 900,0.566,0.568,0.498,0.63,0.718,0.467,0.402,0.316,–,–,–,–,0.544,0.481,0.545,0.343,0.397,0.56,0.418,0.475
